Earlier results, collected in paper PMC10582684 (RSC Advances, 2023).
Read-outs that look alike come from different tables or passages of the source.

How the values were obtained:
[1] = literature comparison
[2] = oligopeptides from ginkgo seed and bighead carp, high content of Pro
[3] = peptides from walnut protein with Lys in C-terminal tripeptide

O=C(O)CN(CCN(CC(=O)O)CC(=O)O)CC(=O)O [ethylenediamine tetraacetic acid]
Chelating ability towards zinc ions [1]: 57.17 mg/g

LSMSFPPF
Stability against gastrointestinal enzymic digestion (in words) [2]: excellent stability

PKPP
Inhibiting ability on ACE (in words) (ACE; [3]): excellent inhibiting ability on ACE

PPKP
Inhibiting ability on ACE (in words) (ACE; [3]): excellent inhibiting ability on ACE

PPSEPTKL
Stability against gastrointestinal enzymic digestion (in words) [2]: excellent stability

TGLL
Chelating ability towards zinc ions [1]: 2.27 mg/g

VPKIPPP
Stability against gastrointestinal enzymic digestion (in words) [2]: excellent stability

WNGPKGV
Inhibiting ability on ACE (in words) (ACE; peptide from corn protein with Lys in C-terminal tripeptide): excellent inhibiting ability on ACE

YIRLHF
Inhibitory kinetics on ACE (ACE; peptide from bighead carp protein): competitive inhibitory kinetics
